Results as given in PubChem BioAssay (NCI).
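Dose response: 5 concentrations. Exposure: 48 h. Format: 96-well plates. Endpoint: linear interpolation; highest concentration if not reached. GI50: concentration for 50% inhibition of growth. TGI denotes the concentration required for complete inhibition of growth.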

Tests used:
Experiment in all cases: NCI anticancer screen, dose series, 48 h; in the data active = GI50 below about 0.43 µM; inactive = the rest
CAKI-1 renal = tested on: CAKI-1 renal
IGROV1 ovarian = tested on: IGROV1 ovarian
HS 578T breast = tested on: HS 578T breast
A549 NSCLC = tested on: A549 NSCLC
SF-268 CNS = tested on: SF-268 CNS
HCT-116 colon = tested on: HCT-116 colon
CCRF-CEM leukemia = tested on: CCRF-CEM leukemia
SK-OV-3 ovarian = tested on: SK-OV-3 ovarian
MDA-MB-435 = tested on: MDA-MB-435
NCI-H226 lung = tested on: NCI-H226 lung
TK-10 renal = tested on: TK-10 renal
HCT-15 colon = tested on: HCT-15 colon
OVCAR-4 ovarian = tested on: OVCAR-4 ovarian
T-47D breast = tested on: T-47D breast
BT-549 breast = tested on: BT-549 breast
SN12C renal = tested on: SN12C renal
LOX IMVI melanoma = tested on: LOX IMVI melanoma
KM12 colon = tested on: KM12 colon
OVCAR-3 ovarian = tested on: OVCAR-3 ovarian
SNB-75 CNS = tested on: SNB-75 CNS
PC-3 prostate = tested on: PC-3 prostate
SK-MEL-5 melanoma = tested on: SK-MEL-5 melanoma
RPMI-8226 leukemia = tested on: RPMI-8226 leukemia
UACC-62 melanoma = tested on: UACC-62 melanoma
HOP-92 NSCLC = tested on: HOP-92 NSCLC
NCI/ADR-RES ovarian = tested on: NCI/ADR-RES ovarian
SR leukemia = tested on: SR leukemia
HL-60(TB) leukemia = tested on: HL-60(TB) leukemia
NCI-H522 lung = tested on: NCI-H522 lung
OVCAR-8 ovarian = tested on: OVCAR-8 ovarian
SF-295 CNS = tested on: SF-295 CNS
UACC-257 melanoma = tested on: UACC-257 melanoma
HCC-2998 colon = tested on: HCC-2998 colon
DU-145 prostate = tested on: DU-145 prostate
ACHN renal = tested on: ACHN renal
RXF 393 renal = tested on: RXF 393 renal
NCI-H460 lung = tested on: NCI-H460 lung
MOLT-4 leukemia = tested on: MOLT-4 leukemia
A498 renal = tested on: A498 renal
K-562 leukemia = tested on: K-562 leukemia
EKVX NSCLC = tested on: EKVX NSCLC
MCF7 breast = tested on: MCF7 breast
HOP-62 NSCLC = tested on: HOP-62 NSCLC
OVCAR-5 ovarian = tested on: OVCAR-5 ovarian
786-0 renal = tested on: 786-0 renal
MDA-MB-231 breast = tested on: MDA-MB-231 breast
SK-MEL-28 melanoma = tested on: SK-MEL-28 melanoma
SNB-19 CNS = tested on: SNB-19 CNS
SW-620 colon = tested on: SW-620 colon
UO-31 renal = tested on: UO-31 renal
SF-539 CNS = tested on: SF-539 CNS
COLO 205 colon = tested on: COLO 205 colon
M14 melanoma = tested on: M14 melanoma
NCI-H23 lung = tested on: NCI-H23 lung
SK-MEL-2 melanoma = tested on: SK-MEL-2 melanoma
U251 CNS = tested on: U251 CNS

Cc1c(C(=O)N/N=C/c2ccc(O)cc2)nnn1-c1ccnc2c(C(F)(F)F)cccc12
83.3 µM: TGI (SN12C renal)
50.4 µM: TGI (HOP-92 NSCLC)
48.4 µM: TGI (MDA-MB-231 breast)
> 100 µM: TGI (CAKI-1 renal) | TGI (IGROV1 ovarian) | TGI (HS 578T breast) | TGI (A549 NSCLC) | TGI (SF-268 CNS) | TGI (HCT-116 colon) | TGI (CCRF-CEM leukemia) | TGI (MDA-MB-435) | TGI (NCI-H226 lung) | TGI (TK-10 renal) | TGI (HCT-15 colon) | TGI (OVCAR-4 ovarian) | TGI (T-47D breast) | TGI (BT-549 breast) | TGI (LOX IMVI melanoma) | TGI (KM12 colon) | TGI (OVCAR-3 ovarian) | TGI (PC-3 prostate) | TGI (SK-MEL-5 melanoma) | TGI (RPMI-8226 leukemia) | TGI (UACC-62 melanoma) | TGI (NCI/ADR-RES ovarian) | TGI (SR leukemia) | TGI (HL-60(TB) leukemia) | TGI (NCI-H522 lung) | TGI (OVCAR-8 ovarian) | TGI (SF-295 CNS) | TGI (UACC-257 melanoma) | TGI (HCC-2998 colon) | TGI (DU-145 prostate) | TGI (ACHN renal) | TGI (NCI-H460 lung) | TGI (MOLT-4 leukemia) | TGI (A498 renal) | TGI (K-562 leukemia) | TGI (EKVX NSCLC) | TGI (MCF7 breast) | TGI (OVCAR-5 ovarian) | TGI (786-0 renal) | TGI (SK-MEL-28 melanoma) | TGI (SW-620 colon) | TGI (UO-31 renal) | TGI (SF-539 CNS) | TGI (COLO 205 colon) | TGI (M14 melanoma) | TGI (NCI-H23 lung) | TGI (SK-MEL-2 melanoma)
34.6 µM: TGI (RXF 393 renal)
76.7 µM: TGI (SK-OV-3 ovarian) | TGI (SNB-19 CNS)
40 µM: TGI (SNB-75 CNS)
inactive: GI50 (CAKI-1 renal) > 100 µM | GI50 (IGROV1 ovarian) > 100 µM | GI50 (HS 578T breast) 44.6 µM | GI50 (A549 NSCLC) > 100 µM | GI50 (SF-268 CNS) 64.4 µM | GI50 (HCT-116 colon) 50.1 µM | GI50 (CCRF-CEM leukemia) > 100 µM | GI50 (SK-OV-3 ovarian) 27.2 µM | GI50 (MDA-MB-435) > 100 µM | GI50 (NCI-H226 lung) 36.9 µM | GI50 (TK-10 renal) > 100 µM | GI50 (HCT-15 colon) > 100 µM | GI50 (OVCAR-4 ovarian) 5.09 µM | GI50 (T-47D breast) 92.5 µM | GI50 (BT-549 breast) 41.6 µM | GI50 (SN12C renal) 16.3 µM | GI50 (LOX IMVI melanoma) 46.8 µM | GI50 (KM12 colon) > 100 µM | GI50 (OVCAR-3 ovarian) > 100 µM | GI50 (SNB-75 CNS) 19.1 µM | GI50 (PC-3 prostate) > 100 µM | GI50 (SK-MEL-5 melanoma) > 100 µM | GI50 (RPMI-8226 leukemia) > 100 µM | GI50 (UACC-62 melanoma) > 100 µM | GI50 (HOP-92 NSCLC) 17 µM | GI50 (NCI/ADR-RES ovarian) > 100 µM | GI50 (SR leukemia) 44.1 µM | GI50 (HL-60(TB) leukemia) > 100 µM | GI50 (NCI-H522 lung) 49.9 µM | GI50 (OVCAR-8 ovarian) 21.5 µM | GI50 (SF-295 CNS) 22 µM | GI50 (UACC-257 melanoma) > 100 µM | GI50 (HCC-2998 colon) > 100 µM | GI50 (DU-145 prostate) > 100 µM | GI50 (ACHN renal) 41.1 µM | GI50 (RXF 393 renal) 5.22 µM | GI50 (NCI-H460 lung) > 100 µM | GI50 (MOLT-4 leukemia) > 100 µM | GI50 (A498 renal) 36.6 µM | GI50 (K-562 leukemia) > 100 µM | GI50 (EKVX NSCLC) > 100 µM | GI50 (MCF7 breast) 9.12 µM | GI50 (HOP-62 NSCLC) 17.5 µM | GI50 (OVCAR-5 ovarian) > 100 µM | GI50 (786-0 renal) 44.4 µM | GI50 (MDA-MB-231 breast) 12.7 µM | GI50 (SK-MEL-28 melanoma) > 100 µM | GI50 (SNB-19 CNS) 23.5 µM | GI50 (SW-620 colon) > 100 µM | GI50 (UO-31 renal) > 100 µM | GI50 (SF-539 CNS) 42 µM | GI50 (COLO 205 colon) > 100 µM | GI50 (M14 melanoma) > 100 µM | GI50 (NCI-H23 lung) 29.3 µM | GI50 (SK-MEL-2 melanoma) > 100 µM
37 µM: TGI (HOP-62 NSCLC)

CC1=C(C(=O)Nc2ccc(F)c(Cl)c2)C(c2cccc(O)c2)NC(=S)N1 (configuration not stated)
30.2 µM: TGI (MDA-MB-231 breast)
36.8 µM: TGI (BT-549 breast)
44.4 µM: TGI (UACC-257 melanoma)
33.5 µM: TGI (A498 renal)
41.3 µM: TGI (SNB-75 CNS)
40.3 µM: TGI (SK-MEL-5 melanoma)
28.9 µM: TGI (MDA-MB-435)
> 50 µM: TGI (CAKI-1 renal) | TGI (IGROV1 ovarian) | TGI (A549 NSCLC) | TGI (SF-268 CNS) | TGI (HCT-116 colon) | TGI (CCRF-CEM leukemia) | TGI (SK-OV-3 ovarian) | TGI (TK-10 renal) | TGI (HCT-15 colon) | TGI (T-47D breast) | TGI (OVCAR-3 ovarian) | TGI (PC-3 prostate) | TGI (RPMI-8226 leukemia) | TGI (HOP-92 NSCLC) | TGI (NCI/ADR-RES ovarian) | TGI (SR leukemia) | TGI (HL-60(TB) leukemia) | TGI (NCI-H522 lung) | TGI (OVCAR-8 ovarian) | TGI (SF-295 CNS) | TGI (DU-145 prostate) | TGI (ACHN renal) | TGI (NCI-H460 lung) | TGI (EKVX NSCLC) | TGI (MCF7 breast) | TGI (HOP-62 NSCLC) | TGI (OVCAR-5 ovarian) | TGI (786-0 renal) | TGI (SK-MEL-28 melanoma) | TGI (U251 CNS) | TGI (SNB-19 CNS) | TGI (SW-620 colon) | TGI (UO-31 renal) | TGI (COLO 205 colon) | TGI (M14 melanoma) | TGI (NCI-H23 lung) | TGI (SK-MEL-2 melanoma)
30.5 µM: TGI (RXF 393 renal)
41 µM: TGI (LOX IMVI melanoma)
42.5 µM: TGI (K-562 leukemia)
inactive: GI50 (CAKI-1 renal) > 50 µM | GI50 (IGROV1 ovarian) 22.9 µM | GI50 (HS 578T breast) 13.7 µM | GI50 (A549 NSCLC) 21 µM | GI50 (SF-268 CNS) 17.8 µM | GI50 (HCT-116 colon) 34.2 µM | GI50 (CCRF-CEM leukemia) > 50 µM | GI50 (SK-OV-3 ovarian) 16.8 µM | GI50 (MDA-MB-435) 11.6 µM | GI50 (TK-10 renal) > 50 µM | GI50 (HCT-15 colon) 47.8 µM | GI50 (T-47D breast) > 50 µM | GI50 (BT-549 breast) 12.1 µM | GI50 (SN12C renal) 12.7 µM | GI50 (LOX IMVI melanoma) 13.7 µM | GI50 (KM12 colon) 10.8 µM | GI50 (OVCAR-3 ovarian) 17.9 µM | GI50 (SNB-75 CNS) 14.4 µM | GI50 (PC-3 prostate) 32.1 µM | GI50 (SK-MEL-5 melanoma) 11.2 µM | GI50 (RPMI-8226 leukemia) 30.1 µM | GI50 (UACC-62 melanoma) 11.9 µM | GI50 (HOP-92 NSCLC) > 50 µM | GI50 (NCI/ADR-RES ovarian) > 50 µM | GI50 (SR leukemia) 16.4 µM | GI50 (HL-60(TB) leukemia) 25.8 µM | GI50 (NCI-H522 lung) 12.4 µM | GI50 (OVCAR-8 ovarian) 28.5 µM | GI50 (SF-295 CNS) 18 µM | GI50 (UACC-257 melanoma) 16.5 µM | GI50 (DU-145 prostate) > 50 µM | GI50 (ACHN renal) 24.5 µM | GI50 (RXF 393 renal) 14 µM | GI50 (NCI-H460 lung) 22.8 µM | GI50 (A498 renal) 9.45 µM | GI50 (K-562 leukemia) 16 µM | GI50 (EKVX NSCLC) 17.8 µM | GI50 (MCF7 breast) 17.5 µM | GI50 (HOP-62 NSCLC) > 50 µM | GI50 (OVCAR-5 ovarian) 17 µM | GI50 (786-0 renal) 19.1 µM | GI50 (MDA-MB-231 breast) 10.9 µM | GI50 (SK-MEL-28 melanoma) > 50 µM | GI50 (U251 CNS) 16.6 µM | GI50 (SNB-19 CNS) > 50 µM | GI50 (SW-620 colon) 20.6 µM | GI50 (UO-31 renal) > 50 µM | GI50 (COLO 205 colon) 22.2 µM | GI50 (M14 melanoma) 14.7 µM | GI50 (NCI-H23 lung) 19.2 µM | GI50 (SK-MEL-2 melanoma) 20.3 µM
36.6 µM: TGI (UACC-62 melanoma)
39.2 µM: TGI (SN12C renal)
47 µM: TGI (HS 578T breast)
35.8 µM: TGI (KM12 colon)
